The record followed here is patent US20100092479A1, “Compositions and methods for treatment of viral diseases” (CombinatoRx (Singapore) Pte. Ltd., priority 2008, published 2010).

Data set [1] deals with Huh7 cells expressing a subgenomic RNA replicon of Con1 (genotype 1b). Description: HCV replicon assay (luciferase, SteadyLite), Example 1. Type of data set: cell-based. The settings on record: single agent; for IC50: read-out: IC50 (concentration required to achieve 50% inhibition of viral replication); for Emax: read-out: Max Eff (maximum effect, inhibition of viral replication). The method, then:
The HCV replicon assay enables screening of compounds with antiviral activity against HCV viral RNA replication. Huh7 cells expressing a subgenomic RNA replicon of Con1 (genotype 1b) sequence origin and expressing the reporter enzyme luciferase were obtained from ReBLikon, GmBH. In order to perform the assay, replicon cells were seeded on a 384-well plate at 4,000 cells/well in a total volume of 30 μL well. The plated cells were incubated at 37° C., 5% CO2. Pre-diluted compounds at a 10× concentration were added to each well to achieve the desired final concentration. Plates were centrifuged at 900×g, 1 minute following the addition of compounds. Cells were incubated an additional 48 hours or 72 hours at 37° C., 5% CO2. Plates were removed from the incubator 30 minutes to 1 hour prior to the addition of 25 μL/well of SteadyLite luciferase assay reagent from Perkin Elmer in order to equilibrate plates to room temperature. Following the addition of SteadyLite reagent, cells were allowed to incubate for 10 minutes prior to collecting data with a luminometer. Antiviral activity was quantified by the inhibition of luciferase activity.
For screens involving a combination of compounds, a synergy score was calculated by the formula S=log fX log fYΣIdata(Idata−/ILoewe), summed over all non-single-agent concentration pairs, and where log fX,Y are the natural logarithm of the dilution factors used for each single agent. This effectively calculates a volume between the measured and Loewe additive response surfaces, weighted towards high inhibition and corrected for varying dilution factors. […] In general, the magnitude of the synergy score indicates the strength of the synergistic interaction.
(In general: A replicon is a self-replicating genome or part of one, used to study replication in cells.)

For a further data set, the system named is Huh7 parental cell line. Description: Host proliferation counterscreen measuring cellular ATP levels (ATPLite). Type of data set: cell-based, human. As for the experimental part:
(§1) The human hepatoma cell line Huh-7^1 and Huh-luc/neo-ET cells (ReBLikon, GmbH) were maintained in Dulbecco's modified Eagle's medium (DMEM; Gibco Invitrogen) supplemented with 10% Fetal Bovine Serum (FBS, Gibco Invitrogen),1% Penicillin/Streptomycin (Gibco Invitrogen), 1% Gluta MAX-1 (Gibco Invitrogen) and 1% Non-Essential Amino Acids Solution (Gibco Invitrogen) at 37° C., 5% CO2. Huh-luc/neo-ET cells were grown in medium additionally supplemented with 250 ug/ml Geneticin (G418, Gibco Invitrogen). These cells stably express an HCV genotype 1b subgenomic replicon encoding firefly (Photinus pyralis) luciferase, the coding sequence for ubiquitin and neomycin phosphotransferase downstream of the HCV IRES and upstream of an EMCV IRES which mediates translation of downstream viral nonstructural proteins NS3 to NS5B^2. For all experimental procedures Huh-luc/neo-ET and Huh-7 parental cells were seeded in DMEM without phenol red in the absence of G418 and Penicillin/Streptomycin (screening medium).
(§2) Cells were seeded in 30 μl of screening medium at 4000 cells/well on white (Huh-luc/neo-ET cells for viral inhibition assay) or black (Huh7 cells for proliferation inhibition assay) 384-well assay plates (Matrix) and incubated overnight for approximately 20 hours. Using a MiniTrak™ Robotic Liquid Handling System (Perkin-Elmer) 1 μl of compound stock solutions (1000× concentration in DMSO unless otherwise mentioned) in an X (2-fold dilutions of compound horizontally arrayed) or Y (2-fold dilutions of compound vertically arrayed) format was transferred from master plates into 384-well clear bottom plates containing 100 μl screening medium (dilution plates) and mixed thoroughly. From each X and Y dilution plate, 3.3 μl was subsequently transferred to the 384-well assay plates for a final compound dilution of 1:1000 generating a 9×9 (81-point) dose response matrix. The cells were then incubated for 48 hours prior to measuring luciferase activity (viral inhibition) or ATP depletion (proliferation inhibition). 25 μl of SteadyLite (Perkin-Elmer) was added to the white 384-well assay plates and 15 μl of ATPLite (Perkin-Elmer) was added to the black 384-well plates which were subsequently incubated at least 5 minutes before measuring the luminescent signal. All luminescence measurements were assayed for 0.1 sec per well with an EnVision™ Xcite multilabel automatic plate reader with Enhanced Luminescence (Perkin-Elmer) and expressed as the number of relative light units (RLU) detected. Compounds were assayed in duplicate 9×9 dose matrices on each plate and DMSO-only control wells were included as negative untreated controls.
(§3) The resulting impact on viral replication, as measured by replicon luciferase activity, is shown as dose response curves in FIG. 1a. A host proliferation counterscreen measuring cellular ATP levels was assessed in parallel using the Huh7 parental cell line and the data were used to evaluate the selectivity of each probe. All of the compounds tested produced either increases (proviral) or decreases (antiviral) in replicon replication.
Background: The purpose of a counterscreen is to sort out artefacts and off-target activity.

For data set [2], the system named is HCV genotype 1b subgenomic replicon. Nature of the data set: cHTS luciferase assay (viral inhibition) in Huh-luc/neo-ET cells, Experiment 2. In kind it is cell-based. The settings on record: single agent; for IC50: Hepatitis C virus, Huh-luc/neo-ET, replicon luciferase activity, 48 hours, read-out: IC50, HCV replication. The method, then:
as §1, §2
Dose matrices were assembled from replicate combination blocks on experimental 384-well pates. Raw phenotype measurements T from each treated well were converted to normalized measures of inhibitory activity a=−log10(TN) or fractional inhibition I=1−T/V relative to the median V of 20 vehicle-treated wells arranged around the plate. After normalization, we calculated average activity values between replicate measurements at the same treatment doses, along with σ1σ1, the accompanying standard error estimates. Single agent responses were tested at eleven serially-diluted doses and combination data as 9×9 dose matrices each testing all pairs of 8 serially-diluted single agent concentrations along with their single agent doses as a control.
as §3

In a further data set the test system is HMGCR. Description: HMGCR protein expression by western analysis in Huh7 cells. Type of data set: cell-based, human. The settings on record: Huh7 cells treated 16 hrs, GAPDH control.
Where [3] appears, read: single agent, Huh7 parental cells.

Structures can show the parent of a compound that is named as a salt. Where two headings read alike, the source gives them in different places.

Method for HMGCR: For protein expression analysis, Huh-luc/neo-ET cells were seeded in 4 ml of medium at 250,000 cells per well on 6-well plates and allowed to adhere for 6-8 hours. Stock solutions of compound were added at a 1:1000 dilution and cells were incubated in the presence of compound over 96 hours. Medium and compounds were refreshed once after an initial incubation of 48 hours. Cells were washed in phosphate-buffered saline (PBS, Invitrogen-Gibco) and lysed by the addition of 1× RIPA lysis buffer (0.5 M Tris-HCl, pH 7.4/1.5 M NaCl/2.5% deoxycholic acid/10% NP-40/10 mM EDTA, purchased from Upstate) containing Complete, Mini Protease inhibitor cocktail and PhosSTOP phosphatase inhibitor cocktail tablets (Roche) according to the manufacturer's recommendations. Cell lysates were rocked for 30 minutes at 4° C. and centrifuged at 10,000×g for 10 minutes at 4° C. The protein concentration of each extract was determined by BCA protein assay (Pierce) according to the manufacturer's protocol. […]
To determine the effects of our chemical inhibitors on HMGCR expression, we treated Huh7 cells with the listed concentrations of each chemical for 16 hrs (FIG. 4b). Cell lysates were extracted according to the methods and HMGCR protein expression was analyzed by SDS-PAGE separation and western staining with antibodies specific for HMGCR and GAPDH.

On to `CC[C@H](C)C(=O)O[C@H]1C[C@@H](C)C=C2C=C[C@H](C)[C@H](CC[C@@H]3C[C@@H](O)CC(=O)O3)[C@H]21` [Lovastatin], for which, in data set [1] (Hepatitis C virus, Huh-7), the IC50 stood at 1640 nM and the Emax is 102%.

On to `O=C([O-])C[C@H](O)C[C@H](O)/C=C/c1c(C2CC2)nc2ccccc2c1-c1ccc(F)cc1.O=C([O-])C[C@H](O)C[C@H](O)/C=C/c1c(C2CC2)nc2ccccc2c1-c1ccc(F)cc1.[Ca+2]` [Itavastatin, calcium salt, Itavastatin], for which, in data set [1], the “Max Eff (maximum effect, inhibition of viral replication)” value is 92 and the IC50 came out at 2300 nM.

Take `CCCCCCC(=O)CCCCCC/C=C/C[C@@H](O)[C@H](O)[C@@](N)(CO)C(=O)O` [Myriocin]: the Emax in data set [1] (Hepatitis C virus, Huh-7) came out at 33%.

Turning to `C[C@@H](Cc1ccc(C(C)(C)C)cc1)CN1C[C@@H](C)O[C@@H](C)C1` [fenpropimorph, Fenpropimorph], the “impact on host cell ATP levels” value in the data set with Huh7 parental cell line is on record as “marginal impact”. In addition, in data set [2], the “HCV replication (replicon luciferase activity), result in words” value (“HCV replication” below) is reported as “inhibited HCV replication”.

As for `CCCCCCCCCCCCCCOc1ccc(C(=O)O)o1` [TOFA, 5-(tetradecyloxy)-2-furancarboxylic acid], in data set [1] (Hepatitis C virus, Huh-7), the IC50 was 6250 nM and the Emax was found to be 95%.

Consider `CC(C)n1c(/C=C/C(O)CC(O)CC(=O)O)c(-c2ccc(F)cc2)c2ccccc21` (centres unmarked) [Fluvastatin], for which, in data set [1] (Hepatitis C virus, Huh-7), the IC50 was 15800 nM and the Emax is 65%.

With `CCN(CC)CCOc1ccc(C(O)(Cc2ccc(Cl)cc2)c2ccc(C)cc2)cc1` (centres unmarked) [Triparanol], in data set [1] (Hepatitis C virus, Huh-7), the IC50 turned out to be 1550 nM and the Emax came to 87%.

Regarding `Clc1ccccc1CNC[C@H]1CC[C@H](CNCc2ccccc2Cl)CC1` [AY-9944], in data set [1] (Hepatitis C virus, Huh-7), the IC50 came out at 2520 nM and the Emax turned out to be 85%.

As for `CCN(CC)CCOc1ccc(/C(=C(\Cl)c2ccccc2)c2ccccc2)cc1` [Clomiphene citrate, Clomiphene], the Emax in data set [1] (Hepatitis C virus, Huh-7) came to 86%.

As for Terconazole, in data set [1], the “Max Eff (maximum effect, inhibition of viral replication)” value turned out to be 95 and the IC50 is 1660 nM.

Regarding `CCN(CC)CCO[C@H]1CC[C@@]2(C)C(=CC[C@@H]3[C@@H]2CC[C@]2(C)C(=O)CC[C@@H]32)C1` [U18666A], in the data set on HMGCR, the HMGCR protein expression result is reported as “apparent overexpression”. Besides, the “impact on host cell ATP levels” value with Huh7 parental cell line (setting [3]) is “marginal impact”. In data set [2], the IC50 worked out at 19.4 nM and the “HCV replication” value is recorded as “inhibited HCV replication”.

Consider `CCC(C)(C)C(=O)O[C@H]1C[C@@H](C)C=C2C=C[C@H](C)[C@H](CC[C@@H]3C[C@@H](O)CC(=O)O3)[C@H]21` [Simvastatin], for which, in data set [1] (Hepatitis C virus, Huh-7), the IC50 came to 14000 nM and the Emax was found to be 71%.

Regarding `C=CCN(C)CCCCCCOc1ccc(C(=O)c2ccc(Br)cc2)c(F)c1` [Ro 48-8071], in the data set on HMGCR, the HMGCR protein expression entry is listed as “apparent overexpression”. Moreover, the “impact on host cell ATP levels” value in the data set on Huh7 parental cell line (setting [3]) is on record as “marginal impact”. Also, in data set [2], the IC50 came out at 68.3 nM and the “HCV replication” value is listed as “inhibited HCV replication”. Further, in data set [1] (Hepatitis C virus, Huh-7), the IC50 was 60 nM and the Emax was determined as 66%.

For `CC[C@H](C)C(=O)O[C@H]1CCC=C2C=C[C@H](C)[C@H](CC[C@@H]3C[C@@H](O)CC(=O)O3)[C@H]21` [Mevastatin], in data set [1] (Hepatitis C virus, Huh-7), the IC50 was 600 nM and the Emax amounted to 101%.

Consider `COC(=O)[C@H](CC(C)C)NC(=O)c1ccc(NC[C@@H](N)CS)cc1-c1ccccc1` [GGTI-286], for which, in data set [1] (Hepatitis C virus, Huh-7), the IC50 was 3700 nM and the Emax came to 79%.

Take `CCC(C)(C)c1ccc(CC(C)CN2C[C@@H](C)O[C@@H](C)C2)cc1` (some centres unmarked) [amorolfine, Amorolfine]: the “impact on host cell ATP levels” value in the data set with Huh7 parental cell line (setting [3]) is “marginal impact”. The “HCV replication” value in data set [2] is “inhibited HCV replication”.

Consider `CCOP(=O)(OCC)C(=Cc1cc(C(C)(C)C)c(O)c(C(C)(C)C)c1)P(=O)(OCC)OCC` [SR 12813], for which the “Max Eff (maximum effect, inhibition of viral replication)” value in data set [1] was 47.

Take `CCC(C)(C)c1ccc(CC(C)CN2C[C@@H](C)O[C@@H](C)C2)cc1` (some centres unmarked) [Amorolfine hydrochloride, Amorolfine]: in data set [1] (Hepatitis C virus, Huh-7), the IC50 worked out at 7660 nM and the Emax was found to be 62%.

In the case of `O=C(c1ccc(Cl)cc1)N1CCC(=Cc2ccc(C3=NCCO3)cc2)CC1` [BIBB-515], the Emax in data set [1] (Hepatitis C virus, Huh-7) stood at 46%.

With `CC(C)CCCC(C)[C@H]1CC(=O)C2=C3CC[C@H]4C[C@@H](O)CC[C@]4(C)C3CC[C@@]21C` (some centres unmarked) [Colestolone], the “impact on host cell ATP levels” value in the data set with Huh7 parental cell line (setting [3]) was “marginal impact”. Also, in data set [2], the “HCV replication” value was “inhibited HCV replication”. Also, in data set [1] (Hepatitis C virus, Huh-7), the IC50 is 1620 nM and the Emax was 79%.
